Assay results from US11578056B2, “Solid forms comprising (S)-2-(2,6-dioxopiperidin-3-yl)-4-((2-fluoro-4-((3-morpholinoazetidin-1-yl)methyl)benzyl)amino)isoindoline-1,3-dione and salts thereof, and compositions comprising and methods of using the same” (Celgene Corporation, priority 2019, dated 2023).

Experiments:
Assay type in all cases: cell-based
[1] = test system: DOHH2 cell line; test: Hematological cell line viability/apoptosis flow cytometry assay; conditions: DOHH2 (FL); 120 h
How it was run: (§1)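 384-well format; serial dilutions 0.00015–10 μM, DMSO 0.1% v/v, 5 days. Annexin V/DRAQ7 flow readout. Viability normalized to DMSO → IC50, Emax, AUC; apoptosis (early + late) vs DMSO → EC50, Ymax, AUC.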

[2] = test system: Pfeiffer cell line; test: as above; conditions: Pfeiffer (DLBCL GCB); 120 h
How it was run: as §1

[3] = test system: OCI-LY19 cell line; test: as above; conditions: OCI-LY19 (DLBCL GCB); 120 h
How it was run: as §1

[4] = test system: PGA1 cell line; test: as above; conditions: PGA1 (CLL), 120 h
How it was run: as §1

[5] = test system: NU-DUL-1 cell line; test: as above; conditions: NU-DUL-1 (DLBCL ABC); 120 h
How it was run: as §1

[6] = test system: SU-DHL-4 cell line; test: Cell proliferation and viability assay using SU-DHL-4 cell line (CellTiter-Glo, 1536-well); conditions: Homo sapiens; SU-DHL-4, 120 hours, Cell Titer-Glo luminescence
Procedure: Cell Proliferation and Viability Assay Using SU-DHL-4 Cell Line: The following exemplary assay uses a DLBCL cell line, for example, the SU-DHL-4 cell line (Deutsche Sammlung von Mikroorganismen and Zellkulturen GmbH [DSMZ]: catalogue number ACC-495) at 120 hours post-treatment. The seeding density for SU-DHL-4 can be optimized to ensure assay linearity in 1536-well plates.
Increasing concentrations (0.5 nM to 10 μM) of Compound 1 were each spotted in a 20-point dilution fashion (unevenly spaced data points) via an acoustic dispenser (EDC ATS-100) into an empty 1536-well plate. The DMSO concentration was kept constant for a final assay concentration of 0.1% DMSO. […] At the time when exposure of cells to compound began (to), initial viable cell number was assessed via Cell Titer-Gb® Luminescent Cell Viability Assay at a 1 vol: 2 vol ratio according to manufacturer's instructions (Promega Corporation, Madison, Wis.) by quantifying the level of luminescence generated by adenosine-5′-triphosphate (ATP) present in viable cells. After 120 hours, cell viability of the treated cells was assessed via Cell Titer-Gb® and read for luminescence. All growth inhibition curves were processed and evaluated using Activity Base (IDBS, Alameda, Calif.). […]

## O=C1CC[C@H](N2C(=O)c3cccc(NCc4ccc(CN5CC(N6CCOCC6)C5)cc4F)c3C2=O)C(=O)N1 [Compound 1, (S)-2-(2,6-dioxopiperidin-3-yl)-4-((2-fluoro-4-((3-morpholinoazetidin-1-yl)methyl)benzyl)amino)isoindoline-1,3-dione]
[1]
  % Viable Cells AUC: 6.902
  % Viable Cells Emax: 0.2066%
  Apoptosis AUC: 923.9
  Apoptosis Ymax: 95.1%
[2]
  % Viable Cells AUC: 313.5
  % Viable Cells Emax: 24.49%
  Apoptosis AUC: 493.3
  Apoptosis Ymax: 51.82%
[3]
  % Viable Cells AUC: 72.49
  % Viable Cells Emax: 3.228%
  Apoptosis AUC: 706.2
  Apoptosis Ymax: 80.91%
[4]
  % Viable Cells AUC: 736.7
  % Viable Cells Emax: 69.21%
  Apoptosis AUC: 48.94
  Apoptosis Ymax: 5.075%
  EC50: 122 nM
[4]; read-out: % Viable Cells IC50
  IC50: > 10 µM
[5]
  % Viable Cells AUC: 22.12
  % Viable Cells Emax: 0.0228%
  Apoptosis AUC: 962.8
  Apoptosis Ymax: 99.84%
[6]
  IC50: < 200 nM
